Reference: ChEMBL document CHEMBL5244202, “Structural evolution of toll-like receptor 7/8 agonists from imidazoquinolines to imidazoles” (RSC Med Chem, 2021)

target: T1, Toll-like receptor 7 (Homo sapiens, UniProt Q9NYK1); assay: Agonist activity at human TLR7 by reporter cell based assay
T1 sequence (Q9NYK1 whole entry): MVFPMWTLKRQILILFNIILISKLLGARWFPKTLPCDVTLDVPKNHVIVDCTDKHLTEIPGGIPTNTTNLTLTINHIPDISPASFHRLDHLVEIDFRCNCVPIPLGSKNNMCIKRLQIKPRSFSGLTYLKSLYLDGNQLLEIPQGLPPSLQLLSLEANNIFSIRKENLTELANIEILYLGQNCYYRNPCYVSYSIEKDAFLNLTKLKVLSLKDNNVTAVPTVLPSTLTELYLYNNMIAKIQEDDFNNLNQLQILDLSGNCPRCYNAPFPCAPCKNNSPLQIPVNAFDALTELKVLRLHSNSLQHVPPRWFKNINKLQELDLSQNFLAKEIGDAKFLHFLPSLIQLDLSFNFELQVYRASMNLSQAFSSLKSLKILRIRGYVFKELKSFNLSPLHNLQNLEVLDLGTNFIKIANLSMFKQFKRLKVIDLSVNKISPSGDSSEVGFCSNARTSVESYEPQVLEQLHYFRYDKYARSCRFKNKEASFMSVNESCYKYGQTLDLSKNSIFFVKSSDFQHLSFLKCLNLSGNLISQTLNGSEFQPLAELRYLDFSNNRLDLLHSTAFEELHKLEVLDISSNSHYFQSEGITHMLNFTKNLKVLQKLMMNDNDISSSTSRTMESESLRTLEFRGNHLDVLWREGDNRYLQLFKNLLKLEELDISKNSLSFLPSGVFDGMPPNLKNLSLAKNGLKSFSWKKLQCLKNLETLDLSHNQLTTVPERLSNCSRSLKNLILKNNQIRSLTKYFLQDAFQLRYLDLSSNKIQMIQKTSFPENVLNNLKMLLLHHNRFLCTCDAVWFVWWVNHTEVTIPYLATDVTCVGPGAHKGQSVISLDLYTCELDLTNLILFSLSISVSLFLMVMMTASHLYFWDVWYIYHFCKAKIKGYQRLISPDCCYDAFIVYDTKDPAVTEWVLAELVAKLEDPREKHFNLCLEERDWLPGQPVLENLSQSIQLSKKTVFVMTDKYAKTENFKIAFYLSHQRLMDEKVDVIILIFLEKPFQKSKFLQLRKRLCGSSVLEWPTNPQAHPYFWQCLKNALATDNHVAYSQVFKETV

Structure (SMILES)	EC50 [nM]
CCCCc1nc2c(N)nc3ccccc3c2n1CCCN(CCCN(C)CC)Cc1cccc(C(=O)OC)c1	158
CCCCc1nc2c(N)nc3ccccc3c2n1CCCN(Cc1cccc(C(=O)OC)c1)C(=O)CN1CC(O)C1	1580
CCCCc1nc2c(N)nc3ccccc3c2n1CCCN(Cc1cccc(C(=O)OC)c1)C(=O)CN1CCCN(S(C)(=O)=O)CC1	631
CCCCc1nc2c(N)nc3ccccc3c2n1CCCN(Cc1cccc(C(=O)OC)c1)C(=O)CN1CCCN(C(C)=O)CC1	501
CCCCc1nc2c(N)nc3ccccc3c2n1CCCN(Cc1cccc(C(=O)OC)c1)C(=O)CN1CCCN(C)CC1	251
CCCCc1nc2c(N)nc3ccccc3c2n1CCCN(Cc1cccc(C(=O)OC)c1)C(=O)CN1CCCOCC1	398
CCCC[C@@H](CCO)Nc1nc(N)nc(C)c1Cc1ccc(CC(=O)OCC2CCN(C)CC2)cc1F	39.8
CCCCc1nc2c(N)nc3ccccc3c2n1CCCN(Cc1cccc(C(=O)OC)c1)C(=O)CN1CCC(OC)CC1	200
CCCCCNc1nc(N)nc(C)c1CCCN(Cc1cccc(CC(=O)OC)c1)C(=O)CN1CCC[C@@H]1C(=O)OC	631
CCCC[C@@H](CO)Nc1nc(N)nc(C)c1Cc1ccc(CC(=O)OCCCCN(C)C)cc1	1260
CCCCc1nc2c(N)nc3ccccc3c2n1CCCN(Cc1cccc(C(=O)OC)c1)C(=O)CN1CCN(S(C)(=O)=O)CC1	794
CCCC[C@@H](CCO)Nc1nc(N)nc(C)c1Cc1ccc(CC(=O)OCCCCN(C)C)cc1F	200
CCCCc1nc2c(N)nc3ccccc3c2n1CCCN(Cc1cccc(C(=O)OC)c1)C(=O)CN(C)C	39.8
CCCCc1nc2c(N)nc3ccccc3c2n1CCCN(Cc1cccc(C(=O)OC)c1)C(=O)CN(CCC)CCC	79.4
CCCCc1nc2c(N)nc3ccccc3c2n1CCCN(Cc1cccc(C(=O)OC)c1)C(=O)CN(C)CCOC	158
CCCC[C@@H](CCO)Nc1nc(N)nc(C)c1Cc1ccc(CC(=O)OCCCCN(C)C)cc1	25.1
CCCCc1nc2c(N)nc3ccccc3c2n1CCCN(Cc1cccc(C(=O)OC)c1)C(=O)CN1CC[C@@H](O)C1	398
CCCCc1nc2c(N)nc3ccccc3c2n1CCCN(Cc1cccc(C(=O)OC)c1)C(=O)CN1CCN(CCO)CC1	501
CCCCc1nc2c(N)nc3ccccc3c2n1CCCN(Cc1cccc(C(=O)OC)c1)C1CCN(C)CC1	316
CCCCc1nc2c(N)nc3ccccc3c2n1CCCN(Cc1cccc(C(=O)OC)c1)C(=O)CN1CCCN(C(=O)NCC)CC1	1260
CCCCc1nc2c(N)nc3ccccc3c2n1CCCN(Cc1cccc(C(=O)OC)c1)C(=O)CN(CCO)CCO	1580

Structure (SMILES)	EC50 [nM]
CCCCc1nc2c(N)nc3ccccc3c2n1CCCN(CCCN(C)C)Cc1cccc(C(=O)OC)c1	251
CCCCc1nc2c(N)nc3ccccc3c2n1CCCN(Cc1cccc(C(=O)OC)c1)C(=O)CN(C)CCCC	126
CCCCc1nc2c(N)nc3ccccc3c2n1CCCN(Cc1cccc(C(=O)OC)c1)C(=O)CN1CCC1	251
CCCC[C@@H](CCO)Nc1nc(N)nc(C)c1Cc1ccc(CC(=O)OCCC2CCN(C)CC2)cc1F	31.6
CCCCCNc1nc(N)nc(C)c1Cc1cccc(CC(=O)OCCCCN(C)C)c1	31.6
CCCCc1nc2c(N)nc3ccccc3c2n1CCCN(Cc1cccc(C(=O)OC)c1)C(=O)CN1CCCCCC1	79.4
CCCCCNc1nc(N)nc(C)c1CCCN(Cc1ccc(CC(=O)OC)cc1)C(=O)CC1CCN(C)CC1	794
CCCCc1nc2c(N)nc3ccccc3c2n1CCCN(Cc1cccc(C(=O)OC)c1)C(=O)CN1CCCC1	63.1
CCCCc1nc2c(N)nc3ccccc3c2n1CCCN(CCCN1CCOCC1)Cc1cccc(C(=O)OC)c1	251
CCCCc1nc2c(N)nc3ccccc3c2n1CCCN(Cc1cccc(C(=O)OC)c1)C(=O)CN1CCC(O)CC1	501
CCCCc1nc2c(N)nc3ccccc3c2n1CCCN(Cc1cccc(C(=O)OC)c1)C(=O)CN1CCC(O)C1 (stereo not given)	398
CCCCc1nc2c(N)nc3ccccc3c2n1CCCN(Cc1cccc(C(=O)OC)c1)C(=O)CN1CCN(C)CC1	79.4
COCCc1nc2c(N)nc3ccccc3c2n1CCCN(Cc1ccc(CC(=O)OC)cc1)C(=O)CCN(C)C	158
CCCCc1nc2c(N)nc3ccccc3c2n1CCCN(Cc1cccc(C(=O)OC)c1)C(=O)CN1CCCCC1	79.4
CCCC[C@@H](CCO)Nc1nc(N)nc(C)c1Cc1ccc(CC(=O)OCCCCN2CCN(C)CC2)cc1F	25.1
CCCCc1nc2c(N)nc3ccccc3c2n1CCCN(Cc1cccc(C(=O)OC)c1)C(=O)CN1CCN(C(C)=O)CC1	1260
CCCCc1nc2c(N)nc3ccccc3c2n1CCCN(Cc1cccc(C(=O)OC)c1)C(=O)CN(C)C1CCOCC1	126
CCCCc1nc2c(N)nc3ccccc3c2n1CCCN(CCCN1CCN(C)CC1)Cc1cccc(C(=O)OC)c1	251
CCCCCNc1nc(N)nc(C)c1CCCN(Cc1ccc(CC(=O)OC)cc1)C(=O)CN1CCCCC1	631
CCCCc1nc2c(N)nc3ccccc3c2n1CCCN(Cc1cccc(C(=O)OC)c1)C(=O)CN1CCC(C(=O)N(C)C)CC1	631
CCCCc1nc2c(N)nc3ccccc3c2n1CCCN(Cc1cccc(C(=O)OC)c1)C(=O)CN1C[C@@H](C)O[C@@H](C)C1	1000

target: T1, Toll-like receptor 7; assay: Agonist activity at recombinant human TLR7 transfected in HEK293 cells assessed as induction of SEAP production incubated overnight by SEAP reporter gene based assay; assay type: cell-based

Structure (SMILES)	EC50 [nM]
CCC[C@@H](CCO)Nc1nc(N)nc(C)c1Cc1ccc(CN2CCCC2)cc1OC	< 1.95
CCC[C@@H](CCO)Nc1nc(N)nc(C)c1Cc1ccc(CN2CCNCC2)cc1OC	5.89
CCC[C@@H](CO)Nc1nc(N)nc(C)c1Cc1ccc(CN(C)C)cc1OC	2.29
CCC[C@@H](CO)Nc1nc(N)nc(C)c1Cc1ccc(CNCCO)cc1OC	95.5
CCC[C@@H](CCO)Nc1nc(N)nc(C)c1Cc1ccc(CN(C)CCOC)cc1OC	< 1.95
CCC[C@@H](CO)Nc1nc(N)nc(C)c1Cc1ccc(CNC2CNC2)cc1OC	380
CCC[C@@H](CCO)Nc1nc(N)nc(C)c1Cc1ccc(CN2CCN(C)CC2)cc1OC	< 1.95
CCC[C@@H](CCO)Nc1nc(N)nc(C)c1Cc1ccc(Cn2ccnc2)cc1OC	2.75
